Legend:
Format in all cases: in vivo
Monochoria vaginalis [1] = assay: Test Example 6: herbicidal effect test by application during growth period of paddy rice (low dose); conditions: Pontederia vaginalis; 7.5 g per 10 ares; applied seven days after sowing, flooded pots; 14 days after application; read-out: weed inhibition rate
Summary of the method: (§1)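 Paddy-soil pots, flooded ~3 cm after sowing weed seeds at 0-1 cm depth, greenhouse-grown. Seven days after sowing, diluted emulsifiable concentrate applied by dropper at 7.5 g active ingredient per 10 ares. Weed inhibition rate (%) scored 14 days after application, in duplicate.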

Scirpus juncoides [2] = assay: as above; conditions: Schoenoplectiella juncoides; 7.5 g per 10 ares; applied seven days after sowing, flooded pots; 14 days after application; read-out: weed inhibition rate
Summary of the method: as §1

Digitaria ciliaris [3] = assay: Test Example 3: herbicidal effect test by soil application in upland field; conditions: Digitaria ciliaris, 120 g per 10 ares, sprayed one day after sowing, 14 days after application, read-out: weed inhibition rate
Summary of the method: (§2)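 Pre-emergence test: seeds mixed into top 1 cm of alluvial loam upland soil in pots; emulsifiable concentrate diluted in water sprayed on soil one day after sowing at 100 L/10 a, 120 g a.i./10 a. Weed inhibition rate (%) scored at 14 days, in duplicate.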

Echinochloa crus-galli [4] = assay: as above; conditions: Echinochloa crus-galli, 120 g per 10 ares, sprayed one day after sowing, 14 days after application, read-out: weed inhibition rate
Summary of the method: as §2

Monochoria vaginalis [5] = assay: Test Example 2: herbicidal effect test by application during growth period of paddy rice; conditions: Pontederia vaginalis; 120 g per 10 ares; applied seven days after sowing, flooded pots; 14 days after application; read-out: weed inhibition rate
Summary of the method: (§3)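 Steps: puddle fertilized paddy soil; sow 30 seeds of each weed at 0–1 cm; flood to roughly 3 cm and keep in a glasshouse; at day 7 drop in diluted emulsifiable concentrate (120 g a.i. per 10 ares); score inhibition (%) 14 days later, two replicates.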

[6] = test system: Echinochloa crus-galli var. formosensis; assay: as above; conditions: Echinochloa crus-galli; 120 g per 10 ares; applied seven days after sowing, flooded pots; 14 days after application; read-out: weed inhibition rate
Summary of the method: as §3

Scirpus juncoides [7] = assay: as above; conditions: Schoenoplectiella juncoides; 120 g per 10 ares; applied seven days after sowing, flooded pots; 14 days after application; read-out: weed inhibition rate
Summary of the method: as §3

Digitaria ciliaris [8] = assay: Test Example 8: herbicidal effect test by stem and leaf treatment in upland field (low dose); conditions: Digitaria ciliaris; 7.5 g per 10 ares; sprayed seven days after sowing, upland soil; 14 days after application; read-out: weed inhibition rate
Echinochloa crus-galli [9] = assay: as above; conditions: Echinochloa crus-galli; 7.5 g per 10 ares; sprayed seven days after sowing, upland soil; 14 days after application; read-out: weed inhibition rate
Monochoria vaginalis [10] = assay: Test Example 1: herbicidal effect test by soil application in paddy rice; conditions: 120 g active ingredient per 10 ares, applied immediately after sowing, flooded pots, 14 days after application; for pest or weed control at 1200 g/ha: Pontederia vaginalis, soil, 336 h, read-out: weed inhibition rate
Summary of the method: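 Pre-emergence test in puddled, flooded paddy soil (about 3 cm water), 30 seeds per weed sown at 0–1 cm depth in a glass greenhouse. Emulsifiable concentrate diluted in water and dropped onto the pots straight after sowing at 120 g a.i. per 10 ares. Weed inhibition (%) scored at 14 days, in duplicate.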

Amaranthus viridis = assay: Test Example 3: herbicidal effect test by soil application in upland field; conditions: Amaranthus viridis, 120 g per 10 ares, sprayed one day after sowing, 14 days after application, read-out: weed inhibition rate
Summary of the method: as §2

CC(C)[C@]12C[C@@H](OCc3ccccc3)[C@](C)(C[C@@H]1Br)O2 [1-15, (1S,2R,4R,5S)-5-bromo-1-methyl-2-phenylmethoxy-4-isopropyl-7-oxabicyclo[2.2.1]heptane]
≥ 80%: inhibition at 75 g/ha (Monochoria vaginalis [1]) | inhibition at 75 g/ha (Scirpus juncoides [2]) | inhibition at 1200 g/ha (Digitaria ciliaris [3]) | inhibition at 1200 g/ha (Echinochloa crus-galli [4]) | inhibition at 1200 g/ha (Monochoria vaginalis [5]) | inhibition at 1200 g/ha [6] | inhibition at 1200 g/ha (Scirpus juncoides [7]) | inhibition at 75 g/ha (Digitaria ciliaris [8]) | inhibition at 75 g/ha (Echinochloa crus-galli [9]) | pest or weed control at 1200 g/ha (Monochoria vaginalis [10])

CC(C)[C@]12C[C@@H](OCc3ccc(F)cc3)[C@](C)(C[C@@H]1Br)O2 [1-691, (1S,2R,4R,5S)-5-bromo-2-[(4-fluorophenyl)methoxy]-1-methyl-4-isopropyl-7-oxabicyclo[2.2.1]heptane]
≥ 80%: inhibition at 75 g/ha (Monochoria vaginalis [1]) | inhibition at 75 g/ha (Scirpus juncoides [2]) | inhibition at 1200 g/ha (Digitaria ciliaris [3]) | inhibition at 1200 g/ha (Echinochloa crus-galli [4]) | inhibition at 1200 g/ha (Monochoria vaginalis [5]) | inhibition at 1200 g/ha [6] | inhibition at 1200 g/ha (Scirpus juncoides [7]) | inhibition at 75 g/ha (Digitaria ciliaris [8]) | inhibition at 75 g/ha (Echinochloa crus-galli [9]) | pest or weed control at 1200 g/ha (Monochoria vaginalis [10])

CC(C)[C@]12C=C[C@](C)(O1)[C@H](OCc1c(F)cccc1F)C2 [3-7, (1R,4S,5R)-5-[(2,6-difluorophenyl)methoxy]-4-methyl-1-isopropyl-7-oxabicyclo[2.2.1]hept-2-ene]
≥ 80%: inhibition at 75 g/ha (Scirpus juncoides [2]) | inhibition at 1200 g/ha (Digitaria ciliaris [3]) | inhibition at 1200 g/ha (Echinochloa crus-galli [4]) | inhibition at 1200 g/ha [6] | inhibition at 1200 g/ha (Scirpus juncoides [7]) | inhibition at 75 g/ha (Digitaria ciliaris [8]) | inhibition at 75 g/ha (Echinochloa crus-galli [9]) | pest or weed control at 1200 g/ha (Monochoria vaginalis [10])

CC(C)[C@]12C[C@@H](OCc3ccccc3F)[C@](C)(C/C1=N\O)O2 [2-197, (1R,4S,5R,E)-5-((2-fluorobenzyl)oxy)-1-isopropyl-4-methyl-7-oxabicyclo[2.2.1]heptan-2-one oxime]
≥ 80%: inhibition at 75 g/ha (Monochoria vaginalis [1]) | inhibition at 1200 g/ha (Digitaria ciliaris [3]) | inhibition at 1200 g/ha (Echinochloa crus-galli [4]) | inhibition at 1200 g/ha (Amaranthus viridis) | inhibition at 1200 g/ha (Monochoria vaginalis [5]) | inhibition at 1200 g/ha [6] | inhibition at 1200 g/ha (Scirpus juncoides [7]) | inhibition at 75 g/ha (Digitaria ciliaris [8]) | inhibition at 75 g/ha (Echinochloa crus-galli [9]) | pest or weed control at 1200 g/ha (Monochoria vaginalis [10])

CCO[C@H]1C[C@]2(C)O[C@@]1(C(C)C)C[C@H]2OCc1ccccc1F [1-183, (1S,2R,4R,5S)-5-ethoxy-2-[(2-fluorophenyl)methoxy]-1-methyl-4-isopropyl-7-oxabicyclo[2.2.1]heptane]
≥ 80%: inhibition at 75 g/ha (Monochoria vaginalis [1]) | inhibition at 75 g/ha (Scirpus juncoides [2]) | inhibition at 1200 g/ha (Digitaria ciliaris [3]) | inhibition at 1200 g/ha (Echinochloa crus-galli [4]) | inhibition at 1200 g/ha (Monochoria vaginalis [5]) | inhibition at 1200 g/ha [6] | inhibition at 1200 g/ha (Scirpus juncoides [7]) | inhibition at 75 g/ha (Digitaria ciliaris [8]) | inhibition at 75 g/ha (Echinochloa crus-galli [9]) | pest or weed control at 1200 g/ha (Monochoria vaginalis [10])

CC(C)[C@]12C=C[C@](C)(O1)[C@H](OCc1ccccc1)C2 [3-1, (1R,4S,5R)-4-methyl-5-phenylmethoxy-1-isopropyl-7-oxabicyclo[2.2.1]hept-2-ene]
≥ 80%: inhibition at 75 g/ha (Monochoria vaginalis [1]) | inhibition at 75 g/ha (Scirpus juncoides [2]) | inhibition at 1200 g/ha (Digitaria ciliaris [3]) | inhibition at 1200 g/ha (Echinochloa crus-galli [4]) | inhibition at 1200 g/ha (Monochoria vaginalis [5]) | inhibition at 1200 g/ha [6] | inhibition at 1200 g/ha (Scirpus juncoides [7]) | inhibition at 75 g/ha (Digitaria ciliaris [8]) | inhibition at 75 g/ha (Echinochloa crus-galli [9]) | pest or weed control at 1200 g/ha (Monochoria vaginalis [10])

CC(C)[C@]12C[C@@H](OCc3c(F)cccc3F)[C@](C)(C[C@@H]1Br)O2 [1-21, (1S,2R,4R,5S)-5-bromo-2-[(2,6-difluorophenyl)methoxy]-1-methyl-4-isopropyl-7-oxabicyclo[2.2.1]heptane]
≥ 80%: inhibition at 75 g/ha (Monochoria vaginalis [1]) | inhibition at 75 g/ha (Scirpus juncoides [2]) | inhibition at 1200 g/ha (Digitaria ciliaris [3]) | inhibition at 1200 g/ha (Echinochloa crus-galli [4]) | inhibition at 1200 g/ha (Monochoria vaginalis [5]) | inhibition at 1200 g/ha [6] | inhibition at 1200 g/ha (Scirpus juncoides [7]) | inhibition at 75 g/ha (Digitaria ciliaris [8]) | inhibition at 75 g/ha (Echinochloa crus-galli [9]) | pest or weed control at 1200 g/ha (Monochoria vaginalis [10])

C=CCO[C@H]1C[C@]2(C)O[C@@]1(C(C)C)C[C@H]2OCc1ccccc1F [1-1602, (1S,2R,4R,5S)-2-[(2-fluorophenyl)methoxy]-1-methyl-4-isopropyl-5-prop-2-enoxy-7-oxabicyclo[2.2.1]heptane]
≥ 80%: inhibition at 75 g/ha (Monochoria vaginalis [1]) | inhibition at 75 g/ha (Scirpus juncoides [2]) | inhibition at 1200 g/ha (Digitaria ciliaris [3]) | inhibition at 1200 g/ha (Echinochloa crus-galli [4]) | inhibition at 1200 g/ha (Monochoria vaginalis [5]) | inhibition at 1200 g/ha [6] | inhibition at 1200 g/ha (Scirpus juncoides [7]) | inhibition at 75 g/ha (Digitaria ciliaris [8]) | inhibition at 75 g/ha (Echinochloa crus-galli [9])

CC(C)C12CC(OCc3ccccc3F)C(C)(CC1Br)O2 (stereo not shown) [1-1355, 5-bromo-2-[(2-fluorophenyl)methoxy]-1-methyl-4-isopropyl-7-oxabicyclo[2.2.1]heptane]
≥ 80%: inhibition at 75 g/ha (Monochoria vaginalis [1]) | inhibition at 75 g/ha (Scirpus juncoides [2]) | inhibition at 1200 g/ha (Digitaria ciliaris [3]) | inhibition at 1200 g/ha (Echinochloa crus-galli [4]) | inhibition at 1200 g/ha (Monochoria vaginalis [5]) | inhibition at 1200 g/ha [6] | inhibition at 1200 g/ha (Scirpus juncoides [7]) | inhibition at 75 g/ha (Digitaria ciliaris [8]) | inhibition at 75 g/ha (Echinochloa crus-galli [9]) | pest or weed control at 1200 g/ha (Monochoria vaginalis [10])

CC(C)[C@]12C[C@@H](OCc3ccccc3F)[C@](C)(C[C@@H]1I)O2 [1-753, (1S,2R,4R,SS)-2-[(2-fluorophenyl)methoxy]-5-iodo-1-methyl-4-isopropyl-7-oxabicyclo[2.2.1]heptane]
≥ 80%: inhibition at 75 g/ha (Monochoria vaginalis [1]) | inhibition at 1200 g/ha (Digitaria ciliaris [3]) | inhibition at 1200 g/ha (Echinochloa crus-galli [4]) | inhibition at 1200 g/ha (Amaranthus viridis) | inhibition at 1200 g/ha (Monochoria vaginalis [5]) | inhibition at 1200 g/ha [6] | inhibition at 1200 g/ha (Scirpus juncoides [7]) | inhibition at 75 g/ha (Echinochloa crus-galli [9]) | weed inhibition rate (Monochoria vaginalis [10])

CC(C)=CCO[C@@H]1C[C@]2(C(C)C)O[C@@]1(C)C[C@@H]2Br [1-672, (1S,2R,4R,5S)-5-bromo-1-methyl-2-(3-methylbut-2-enoxy)-4-isopropyl-7-oxabicyclo[2.2.1]heptane]
≥ 80%: inhibition at 75 g/ha (Monochoria vaginalis [1]) | inhibition at 1200 g/ha (Digitaria ciliaris [3]) | inhibition at 1200 g/ha (Echinochloa crus-galli [4]) | inhibition at 1200 g/ha (Amaranthus viridis) | inhibition at 1200 g/ha (Monochoria vaginalis [5]) | inhibition at 1200 g/ha [6] | inhibition at 1200 g/ha (Scirpus juncoides [7]) | inhibition at 75 g/ha (Digitaria ciliaris [8]) | inhibition at 75 g/ha (Echinochloa crus-galli [9]) | pest or weed control at 1200 g/ha (Monochoria vaginalis [10])

Cc1ccc(CO[C@@H]2C[C@]3(C(C)C)O[C@@]2(C)C[C@@H]3Br)cc1 [1-681, (1S,2R,4R,5S)-5-bromo-1-methyl-2-[(4-methylphenyl)methoxy]-4-isopropyl-7-oxabicyclo[2.2.1]heptane]
≥ 80%: inhibition at 75 g/ha (Monochoria vaginalis [1]) | inhibition at 75 g/ha (Scirpus juncoides [2]) | inhibition at 1200 g/ha (Digitaria ciliaris [3]) | inhibition at 1200 g/ha (Echinochloa crus-galli [4]) | inhibition at 1200 g/ha (Monochoria vaginalis [5]) | inhibition at 1200 g/ha [6] | inhibition at 1200 g/ha (Scirpus juncoides [7]) | inhibition at 75 g/ha (Digitaria ciliaris [8]) | inhibition at 75 g/ha (Echinochloa crus-galli [9]) | pest or weed control at 1200 g/ha (Monochoria vaginalis [10])

CC(C)[C@]12C[C@@H](OCc3ccsc3)[C@](C)(C[C@@H]1Br)O2 [1-722, (1S,2R,4R,5S)-5-bromo-1-methyl-4-isopropyl-2-(thiophen-3-ylmethoxy)-7-oxabicyclo[2.2.1]heptane]
≥ 80%: inhibition at 75 g/ha (Monochoria vaginalis [1]) | inhibition at 75 g/ha (Scirpus juncoides [2]) | inhibition at 1200 g/ha (Digitaria ciliaris [3]) | inhibition at 1200 g/ha (Echinochloa crus-galli [4]) | inhibition at 1200 g/ha (Monochoria vaginalis [5]) | inhibition at 1200 g/ha [6] | inhibition at 1200 g/ha (Scirpus juncoides [7]) | inhibition at 75 g/ha (Echinochloa crus-galli [9]) | pest or weed control at 1200 g/ha (Monochoria vaginalis [10])

CO[C@H]1C[C@]2(C)O[C@@]1(C(C)C)C[C@H]2OCc1ccccc1C [1-151, (1 S,2R,4R,5S)-4-isopropyl-5-methoxy-l-methyl-2-((2-methylbenzyl)oxy)-7-oxabicyclo[2.2.1]heptane]
≥ 80%: inhibition at 75 g/ha (Scirpus juncoides [2]) | inhibition at 1200 g/ha (Digitaria ciliaris [3]) | inhibition at 1200 g/ha (Echinochloa crus-galli [4]) | inhibition at 1200 g/ha (Monochoria vaginalis [5]) | inhibition at 1200 g/ha [6] | inhibition at 1200 g/ha (Scirpus juncoides [7]) | inhibition at 75 g/ha (Digitaria ciliaris [8]) | inhibition at 75 g/ha (Echinochloa crus-galli [9])

Source: patent publication EP4707280A1, “1,4-CINEOLE DERIVATIVE AND INTERMEDIATE THEREOF, HERBICIDE CONTAINING SAID DERIVATIVE AS ACTIVE INGREDIENT, METHOD FOR USING HERBICIDE, AND METHOD FOR PREPARING AGROCHEMICAL COMPOSITION” (HOKKO CHEMICAL INDUSTRY CO., LTD., priority 2023, dated 2024)
